Laboratory results from patent US5436246A, “Serotonin receptor agents” (priority 1993, dated 1995).
Structures can show the parent of a compound that is named as a salt. Where two headings read alike, the source gives them in different places.

Columns and labels:
[1] = Eur. J. Pharmacol. 144, 223 (1987); 158, 53 (1988); cited from earlier work
[2] = Eur. J. Pharmacol. 180, 339 (1990); 182, 63 (1990); cited from earlier work
[3] = Eide, Neuropharm. 31, 541 (1992); cited from earlier work
[4] = Bielenberg et al., Stroke Supplement IV, 21 (1990); cited from earlier work
5HT1A receptor = molecular target: T1, 5HT1A receptor (Rattus norvegicus, UniProt P19327); experiment: 5HT1A receptor binding affinity (procedure of Gozlan et al.)
T1 sequence (P19327 1-422): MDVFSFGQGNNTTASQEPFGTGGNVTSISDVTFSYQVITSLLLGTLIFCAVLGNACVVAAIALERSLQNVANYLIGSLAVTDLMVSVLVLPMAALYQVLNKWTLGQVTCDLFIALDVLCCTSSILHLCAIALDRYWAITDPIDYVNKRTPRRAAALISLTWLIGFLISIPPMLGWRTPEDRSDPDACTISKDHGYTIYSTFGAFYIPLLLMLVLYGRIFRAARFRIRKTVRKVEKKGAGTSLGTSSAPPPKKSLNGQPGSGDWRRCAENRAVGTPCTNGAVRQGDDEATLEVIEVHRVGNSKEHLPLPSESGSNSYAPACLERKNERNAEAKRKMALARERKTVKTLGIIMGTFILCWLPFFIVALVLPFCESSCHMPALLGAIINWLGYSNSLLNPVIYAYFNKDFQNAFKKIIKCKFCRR
Description: In the following examples, the compounds binding affinity for both the 5HT1A receptor and 5HT1D receptors is reported. The compounds affinity for the 5HT1D site was determined by the binding procedure of Peroutka et al as reported in European Journal of Pharmacology, Vol. 163 at pages 133-166 (1989). The compounds affinity for the 5HT1A receptor was determined by the procedure of Gozlan et al., as reported in Nature, Volume 305, at pages 140-142 (1983). Where multiple determinations of the binding affinity have been performed, the average is given followed by the number of determinations in parentheses. Also, the PA2 value for the saphenous vein preparation as described in this application is given, followed by the intrinsic (agonist) activity in parentheses, expressed as a percentage. [drawing 10] […]

5HT1D receptor = molecular target: T2, 5HT1D receptor (Bos taurus, UniProt F1MGM3); experiment: 5HT1D receptor binding affinity (procedure of Peroutka et al.)
T2 construct: from tissue
T2 sequence (F1MGM3 1-403): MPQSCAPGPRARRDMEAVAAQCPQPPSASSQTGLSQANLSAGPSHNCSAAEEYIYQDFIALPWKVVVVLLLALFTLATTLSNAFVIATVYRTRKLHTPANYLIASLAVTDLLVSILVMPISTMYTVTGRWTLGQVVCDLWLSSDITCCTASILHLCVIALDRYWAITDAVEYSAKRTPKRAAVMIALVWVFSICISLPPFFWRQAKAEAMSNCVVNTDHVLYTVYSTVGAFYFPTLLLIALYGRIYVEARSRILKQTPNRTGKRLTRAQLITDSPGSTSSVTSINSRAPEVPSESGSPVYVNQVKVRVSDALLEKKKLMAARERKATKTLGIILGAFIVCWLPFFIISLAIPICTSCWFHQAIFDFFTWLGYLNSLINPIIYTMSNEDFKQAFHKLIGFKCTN
Description: The compounds affinity for the 5HT1D site was determined by the binding procedure of Peroutka et al as reported in European Journal of Pharmacology, Vol. 163 at pages 133-166 (1989). […] Where multiple determinations of the binding affinity have been performed, the average is given followed by the number of determinations in parentheses.

[5] = acetic acid writhing test (analgesic effect); format: in vivo; settings: Mus musculus, sc, 0.5 h; mice, subcutaneous, 30 minutes before acetic acid i.p. (0.25% v/v, 0.4 ml)
Description: Eide, Neuropharm. 31, 541 (1992). […] One such model is the acetic acid writhing test. In this test, a group containing from 5-10 mice are administered the test compound subcutaneously. Thirty minutes after administration of the test compound, the mice are administered acetic acid intraperitoneally (0.25 % v/v, 0.4 ml). The mice are then observed for squirming and writhing. Analgesics block this squirming and writhing.

5-HT1D receptors = 5-HT1D receptors (Canis lupus familiaris, UniProt P79250); parameters: species or system dog (canine)
Chain of 5-HT1D receptors (P79250 whole entry): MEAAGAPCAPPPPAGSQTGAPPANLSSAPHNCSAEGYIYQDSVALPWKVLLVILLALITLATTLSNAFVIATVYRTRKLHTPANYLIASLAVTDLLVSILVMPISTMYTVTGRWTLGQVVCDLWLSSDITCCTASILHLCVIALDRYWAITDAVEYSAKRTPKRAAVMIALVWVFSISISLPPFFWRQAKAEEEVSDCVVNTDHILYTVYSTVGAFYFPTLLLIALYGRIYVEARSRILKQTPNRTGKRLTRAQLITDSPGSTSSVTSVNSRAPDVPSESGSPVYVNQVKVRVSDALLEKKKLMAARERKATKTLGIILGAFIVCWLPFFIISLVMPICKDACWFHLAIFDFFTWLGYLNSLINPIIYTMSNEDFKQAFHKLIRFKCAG
Description: In the following examples, the compounds binding affinity for both the 5HT1A receptor and 5HT1D receptors is reported. The compounds affinity for the 5HT1D site was determined by the binding procedure of Peroutka et al as reported in European Journal of Pharmacology, Vol. 163 at pages 133-166 (1989). The compounds affinity for the 5HT1A receptor was determined by the procedure of Gozlan et al., as reported in Nature, Volume 305, at pages 140-142 (1983). Where multiple determinations of the binding affinity have been performed, the average is given followed by the number of determinations in parentheses. Also, the PA2 value for the saphenous vein preparation as described in this application is given, followed by the intrinsic (agonist) activity in parentheses, expressed as a percentage. [drawing 10]
We have used canine saphenous vein for studying 5-HT1D receptors which is similar, although not totally identical, to human coronary 5-HT1D receptors (see Humphrey, P. P. A., Feniuk, W., Perren, M. J., Connor, H. E., Oxford, A. W., Coates, I. H. and Butina, D.: GR43175, a selective agonist for the 5-HT1 -like receptor in dog isolated saphenous vein, Br. J. Pharmacol. 94:1123-1132, 1988; Kaumann, A. J.: Human heart 5-HT receptors, Second international symposium on serotonin, from cell biology to pharmacology and therapeutics, Houston, Sep. 15-18, 1992).
Mongrel dogs weighing 12-18 kg were killed by an intravenous injection of an overdose of sodium pentobarbitol. Saphenous veins were isolated, removed, cleaned of surrounding connective tissue, and cut into helical strips in a dish containing Krebs-Henseleit solution with the following composition in mM: NaCl, 110.0; KCl, 4.8; CaCl2, 2.5; KH2 PO4, 1.2; EDTA(NaEDTA), 0.027; and was constantly bubbled with 95% O2 -5% CO2. Unless otherwise specified, the endothelium of the […] was removed by rubbing with a metal rod. The intactness or absence of functional endothelium was checked by the presence or absence of a relaxant effect of acetycholine (10^-5 M) in phenylephrine-contracted tissues (see Furchgott, R. F. and Zawadzki, J. V.: The obligatory role of endothelial cells in the relaxtion of arterial smooth muscle by acetycholine, Nature 288:373-376, 1980). Each muscle strip (3×30 mm) was set up in a tissue bath at 37° C. and loaded with 2 gram tension. Contractility of the tissues was measured isometrically with a Grass FT03 force-displacement transducer and recorded on a Strip chart recorder. The tissues were allowed to stabilize for 2 hours before the experiment was started, during which time they were washed repeatedly. Tissues were contracted with 3.162×10^-6 M phenylephrine and 40 mM KCl, which produced 60-70% of their maximum contractile responses, to condition the tissue. 5-HT dose response experiment was conducted. Test compounds were then incubated with the tissue before a second 5-HT dose response experiment was performed. Data are expressed as the pA2 value, the negative logarithm of the molar concentration of antagonist which produced a 2 fold shift in ED50 values of 5-HT dose response curves (see Van Rossum, J. M.: Cumulative dose-response curve: Technique for the making of dose-response curves in isolated organs and the evaluation of drug parameters, Arch. Int. Pharmacodyn. Ther. 143:299-330, 1963).

[6] = fear-potentiated startle test (anxiolytic activity); format: in vivo; settings: rats
Text: Animals were trained and tested for tear-potentiated startle in a modification of the methods reported in Hitchcock and Davis (1991). Briefly, rats first were given a matching session consisting of 30 startle stimuli. […] A training session took place one to two days later in which the rats were given 10 paired trials consisting of a visual conditioned stimulus (a light) immediately followed by an unconditioned stimulus (footshock). The test session took place two days later. The product of Example No. 15 was administered s.c. in the flank and fifteen minutes later, the rats were given startle stimuli in the absence of the conditioned stimulus (baseline startle measurement; Noise-Alone trials) or in the presence of the conditioned stimulus (fear-potentiated startle measurement; Light-Noise trials). Fear-potentiated startle was defined as higher startle in the presence of the conditioned fear stimulus than in its absence.
Statistical analysis was done on the mean startle amplitudes on the Noise-Alone and Light-Noise trials, and the mean Difference scores (Light-Noise minus Noise-Alone means). One-way analysis of variance was run on the Difference scores and on the Noise-Alone scores. Multiple comparison test (Fisher PLSD) were used to compare each dose group to the vehicle control group.

[7] = system: dorsal raphe nucleus neurons; settings: Vandermaelen et al.; cited from earlier work
[8] = Peroutka et al.; Saxena et al.; Hamel et al.; cited from earlier work
[9] = early clinical trials; cited from earlier work

Row | Compound | neuronal destruction in rodent models of stroke [4] | IC50 (5HT1A receptor) [nM] | IC50 (5HT1D receptor) [nM] | ED50 [5] [mg/kg] | further results
1 | CCCN(CCC)C1CCc2cccc(O)c2C1 (stereo not drawn) [8-OH DPAT, 8-hydroxy-2-(di-N-propylamino) tetralin] | inhibited or decreased neuronal destruction |  |  |  | effect in rodent models for depression [1]: effective in rodent models for depression; antihypertensive effect in rodent models [2]: effective for the treatment of hypertension in rodent models; analgesic effect [3]: effective as analgesics
2 | CCCN(CCC)C1Cc2c[nH]c3ccc(OC)c(c23)C1.Cl (stereo not drawn) [Bay R 1531] | inhibited or decreased neuronal destruction |  |  |  | 
3 | Cl.OCc1cc2c(N3CCN(CCc4ccccc4)CC3)cccc2s1 [Example 7, 4[4(2-phenylethyl)-1-piperazinyl]-benzo[b]thiophene-2-methanol monohydrochloride] |  | 0.6 | 2.4 | 0.61 | 
4 | Cl.NC(=O)c1cc2c(N3CCN(CCc4ccccc4)CC3)cccc2s1 [Example 9, 4-[4-(2-phenylethyl)-1-piperazinyl]-benzo[b]thiophene-2-carboxamide monohydrochloride] |  | 0.5 | 1.6 | 0.12 | Kb (5-HT1D receptors): 10.2 nM
5 | OCc1cc2c(N3CCN(CCCc4ccccc4)CC3)cccc2s1 [Example 15, 4-[4-(3,phenylpropyl)-1-piperazinyl]-benzo[b]thiophene-2-methanol monohydrochloride] |  |  |  | 1.74 | IC50 (5HT1A receptor; average of multiple determinations where number in parentheses is given, read-out: IC50 (5HT1A Binding Affinity)): 1.8 nM; IC50 (5HT1D receptor; average of multiple determinations where number in parentheses is given, read-out: IC50 (5HT1D Binding Affinity)): 23 nM; decrease of fear-potentiated startle ([6]; doses of 2.5, 20.0, and 40.0 mg/kg s.c., p<.05 vs vehicle, Fisher PLSD): decreased fear-potentiated startle with statistically significant effects; anxiolytic activity in the fear-potentiated startle test ([6]; s.c., 15 minutes before test): significant anxiolytic activity; baseline startle reflex (muscle relaxant activity) ([6]; s.c., Noise-Alone trials): did not decrease the baseline startle reflex
6 | Cl.NC(=O)c1cc2c(N3CCN(CCc4ccc(Cl)cc4)CC3)cccc2s1 [Example 21, 4-[4-[2-(4-chlorophenyl)ethyl]-1-piperazinyl]-benzo[b]thiophene-2-carboxamide monohydrochloride] |  | 2 | 14 | 0.05 | 
7 | Cc1ccc(CCN2CCN(c3cccc4sc(C(N)=O)cc34)CC2)cc1 [Example 29, 4-[4-[2-(4-methylphenyl)ethyl]-1-perazinyl]-benzo[b]thiophene-2-carboxamide monohydrochloride] |  | 1 | 3 | 0.03 | 
8 | O=C1CC2(CCCC2)CC(=O)N1CCCCN1CCN(c2ncccn2)CC1 [buspirone] |  |  |  |  | raphe cell firing [7]: inhibit raphe cell firing
9 | O=C(NCCN1CCN(c2cccc3c2OC[C@H](CO)O3)CC1)c1ccc(F)cc1 [flesinoxan] |  |  |  |  | antihypertensive effect in rodent models [2]: effective for the treatment of hypertension in rodent models
10 | CC1(C)CC(=O)N(CCCCN2CCN(c3ncccn3)CC2)C(=O)C1 [gepirone] | inhibited or decreased neuronal destruction |  |  |  | 
11 | O=C1c2ccccc2S(=O)(=O)N1CCCCN1CCN(c2ncccn2)CC1 [ipsapirone] | inhibited or decreased neuronal destruction |  |  |  | 
12 | CNS(=O)(=O)Cc1ccc2[nH]cc(CCN(C)C)c2c1 [sumatriptan] |  |  |  |  | antimigraine-like effects in animal models [8]: produce antimigraine-like effects in animal models; termination of acute migraine attacks [9]: terminate acute migraine attacks in early clinical trials
